Earlier results in patent US10815533B2, “Biomarker for diagnosing anticancer drug resistance of gastric cancer and use thereof” (SAMSUNG LIFE PUBLIC WELFARE FOUNDATION, priority 2017, dated 2020).

B1: FPA144: selective monoclonal antibody against the FGFR2b subtype (antibody, chains of the INN, looked up, V domains shown)
VH: QVQLVQSGAEVKKPGSSVKVSCKASGYIFTTYNVHWVRQAPGQGLEWIGSIYPDNGDTSYNQNFKGRATITADKSTSTAYMELSSLRSEDTAVYYCARGDFAYWGQGTLVTVSS
VL: DIQMTQSPSSLSASVGDRVTITCKASQGVSNDVAWYQQKPGKAPKLLIYSASYRYTGVPSRFSGSGSGTDFTFTISSLQPEDIATYYCQQHSTTPYTFGQGTKLEIK

What was measured:
[1] = test system: gastric cancer cell line in which FGFR2 was amplified; conditions: preclinical result
FGFR2b+gastric cancer = conditions: phase I clinical trial, 3 out of 9

Row | Molecule | antitumor efficacy [1] | response rate (FGFR2b+gastric cancer)
1 | CCN1CCN(c2ccc(Nc3cc(N(C)C(=O)Nc4c(Cl)c(OC)cc(OC)c4Cl)ncn3)cc2)CC1 [BGJ398] | strong antitumor efficacy | 
2 | B1 |  | 33%
